Measured values reported in patent US9738629B2, “Bridged ring compounds as Hepatitis C virus inhibitors, pharmaceutical compositions and uses thereof” (SUNSHINE LAKE PHARMA CO., LTD., priority 2014, dated 2017).

What was measured:
HCV GT1a replicon = test: HCV replicon assay, genotype 1a, in Huh-7 cells; assay type: cell-based; details: Hepatitis C virus; Huh-7 cells stably transfected with HCV GT1a replicon, 72 hours incubation; luciferase or NEO gene qPCR readout; read-out: EC50 against HCV 1a genotype
Description: (§1) HCV Replicon System was utilized as a screening model in the present disclosure to evaluate the antivirus effects of the compounds disclosed herein against HCV. HCV Replicon assay was first described in Science, 1999, 285 (5424), 110-3. […] To determine the potential anti-HCV effects of the test compounds, luciferase assay and antibiotic Neomycin resistance gene were tested according to the method described in Science. 1999 Jul. 2; 285 (5424), 110-3 and J. Virol. 2003 March; 77 (5), 3007-19.
(§2) In a word, the compounds disclosed herein were tested by using human hepatic carcinoma cell line Huh-7 which is transfected stably with HCV GT1a, GT1b or GT2a replicon respectively, and resistant cells of Y93H, L31F, P32L or I302V and wild-type cells HCV 1b. HCV Replicon System disclosed herein contains G418 resistance gene NEO and Luciferase Reporter Gene, and the level of HCV replication in host cells is detected and characterized by the expression level of the NEO gene or Luciferase Reporter Gene, so the effects of the compounds herein inhibit HCV replication can be evaluated in this system. In this article, a real-time quantitative polymerase chain reaction (qPCR) method was used to detect NEO gene expression level, and chemiluminescence method was used to test Luciferase Reporter Gene expression level.
(§3) The Huh-7 cells transfected with HCV replicons system were seeded into 96-well plates (8,000 cells in 125 μL/well) respectively; each test compound was diluted to desired concentration using 5-fold serial dilutions protocol, 10 doses in duplicate (initial concentration for 10 nM) and added to wells with POD™ 810 Plate Assembler. The plates were incubated in a CO2 incubator for 72 hours; after that, 40 μL of Luciferase assay substrate (Promega Bright-Glo) was added to each well, and detected by a chemiluminescence detection system (Topcount Microplate Scintillation and Luminescence Counter) 5 minutes later; the EC50 (half-maximal effective concentration, concentration for 50% of maximal effect) values of test compounds were analyzed by GraphPad Prism software. In this paper, experiments were repeated twice and set the wells without compounds as negative control.
as §3, with “hours;” for “hours; after that, 40 μL of Luciferase assay substrate (Promega Bright-Glo) was added to each well,”, “the expression level of the NEO gene expression with real-time quantitative PCR” for “by a chemiluminescence detection system (Topcount Microplate Scintillation and Luminescence Counter) 5 minutes”, “software, respectively.” for “software.”

HCV GT1b replicon = test: HCV replicon assay, genotype 1b, in Huh-7 cells; assay type: cell-based; details: Hepatitis C virus; Huh-7 cells stably transfected with HCV GT1b replicon, 72 hours incubation; luciferase or NEO gene qPCR readout; read-out: EC50 against HCV 1b genotype
Description: as §1, §2, §3
as §3, with “hours;” for “hours; after that, 40 μL of Luciferase assay substrate (Promega Bright-Glo) was added to each well,”, “the expression level of the NEO gene expression with real-time quantitative PCR” for “by a chemiluminescence detection system (Topcount Microplate Scintillation and Luminescence Counter) 5 minutes”, “software, respectively.” for “software.”

SMILES	EC50 (HCV GT1a replicon) [pM]	EC50 (HCV GT1b replicon) [pM]
COC(=O)N[C@H](C(=O)N1C(c2ncc(-c3ccc(-c4ccc(-c5cnc([C@@H]6CC[C@H](C)N6C(=O)[C@@H](NC(=O)OC)C(C)C)[nH]5)c5c4C4CCC5C4)cc3)[nH]2)CC[C@@H]1C)C(C)C (stereo partly shown) [Example 1]	19	4
COC(=O)N[C@H](C(=O)N1C(c2ncc(-c3ccc(-c4ccc(-c5ccc6nc([C@@H]7CC[C@H](C)N7C(=O)[C@@H](NC(=O)OC)C(C)C)[nH]c6c5)c5c4C4CCC5C4)cc3)[nH]2)CC[C@@H]1C)C(C)C (stereo partly shown) [Example 3]	8	5
COC(=O)N[C@H](C(=O)N1C[C@@H](C)C[C@H]1c1ncc(-c2ccc(-c3ccc(-c4ccc5nc([C@@H]6CC[C@H](C)N6C(=O)[C@H](NC(=O)OC)c6ccccc6)[nH]c5c4)c4c3C3CCC4C3)cc2)[nH]1)C(C)C (stereo partly shown) [Example 6]	32	6
COC[C@H]1C[C@@H](c2ncc(-c3ccc(-c4ccc(-c5ccc6nc([C@@H]7CC[C@H](C)N7C(=O)[C@@H](NC(=O)OC)C(C)C)[nH]c6c5)c5c4C4CCC5C4)cc3)[nH]2)N(C(=O)[C@@H](NC(=O)OC)C(C)C)C1 (stereo partly shown) [Example 9]	123	8
COC(=O)N[C@H](C(=O)N1C[C@@H](C)CC1c1ncc(-c2ccc(-c3ccc(-c4ccc5nc([C@@H]6CC[C@H](C)N6C(=O)[C@@H](NC(=O)OC)C(C)C)[nH]c5c4)c4c3C3CCC4C3)cc2)[nH]1)C(C)C (stereo partly shown) [Example 4]	131	5
CC[C@H]1CC[C@@H](c2nc3ccc(-c4ccc(-c5ccc(-c6cnc([C@@H]7C[C@H](C)CN7C(=O)[C@@H](NC(=O)OC)C(C)C)[nH]6)cc5)c5c4C4CCC5C4)cc3[nH]2)N1C(=O)[C@@H](NC(=O)OC)C(C)C (stereo partly shown) [Example 8]	63	9
CCC(C)[C@H](NC(=O)OC)C(=O)N1C[C@@H](CC)C[C@H]1c1ncc(-c2ccc(-c3ccc(-c4ccc5nc([C@@H]6CC[C@H](C)N6C(=O)[C@@H](NC(=O)OC)C(C)C)[nH]c5c4)c4c3C3CCC4C3)cc2)[nH]1 (stereo partly shown) [Example 10]	57	9
COC(=O)N[C@H](C(=O)N1C[C@@H](C)C[C@H]1c1ncc(-c2ccc(-c3ccc(-c4ccc5nc([C@@H]6CC[C@H](C)N6C(=O)[C@@H](NC(=O)OC)C6CCOCC6)[nH]c5c4)c4c3C3CCC4C3)cc2)[nH]1)C(C)C (stereo partly shown) [Example 7]	87	5
COC(=O)N[C@H](C(=O)N1[C@@H](C)CC[C@H]1c1nc2ccc(-c3ccc(-c4ccc(-c5cnc([C@@H]6C[C@@H]7CCC[C@@H]7N6C(=O)[C@@H](NC(=O)OC)[C@@H](C)OC)[nH]5)cc4)c4c3C3CCC4C3)cc2[nH]1)C(C)C (stereo partly shown) [Example 11]	235	12
COC(=O)NC(C(=O)N1C[C@@H](C)CC1c1ncc(-c2ccc(-c3ccc(-c4ccc5nc([C@@H]6CC[C@H](C)N6C(=O)[C@@H](NC(=O)OC)C(C)C)[nH]c5c4)c4c3C3CCC4C3)cc2)[nH]1)c1ccccc1 (stereo partly shown) [Example 5]	98	7
COC(=O)N[C@H](C(=O)N1C[C@@H](C)C[C@H]1c1nc2ccc(-c3ccc(-c4ccc(-c5cnc(C6CC[C@H](C)N6C(=O)[C@@H](NC(=O)OC)C(C)C)[nH]5)cc4)c4c3C3CCC4C3)cc2[nH]1)C(C)C (stereo partly shown) [Example 2]	4	4
